Values after ≈ are worked out from the molar mass of the structure shown.
Assays:
[1] = Cytotoxicity against human THLE2 cells assessed as decrease in cell viability after 72 hrs by MTT assay; type: toxicity, cell-based; settings: thle-2, 72 h
[2] = Cytotoxicity against human HuH7 cells assessed as decrease in cell viability after 72 hrs by MTT assay; type: functional; settings: Huh-7, 72 h
[3] = Cytotoxicity against human PH5CH cells assessed as decrease in cell viability after 72 hrs by MTT assay; type: toxicity, cell-based
Huh-7 [4] = assay: Selectivity index, ratio of CC50 for human THLE2 cells to CC50 for human HuH7 cells; type: functional
Huh-7 [5] = assay: Selectivity index, ratio of CC50 for human PH5CH cells to CC50 for human HuH7 cells; type: functional
[6] = Solubility of the compound in ethyl acetate solution; type: physicochemical
[7] = Solubility of the compound in methylene chloride solution; type: physicochemical
[8] = Solubility of the compound in ethanol solution; type: physicochemical
[9] = Drug level in mouse liver microsomes treated with IHVR-04042 assessed as CYP450-mediated compound formation measured at 60 mins; type: ADME; settings: 1 h
[10] = Drug level in human liver microsomes treated with IHVR-04042 assessed as CYP450-mediated compound formation measured at 60 mins; type: ADME; settings: 1 h
[11] = Aqueous solubility of the compound at pH 4; type: physicochemical; settings: buffer
[12] = Oral bioavailability in CD-1 mouse at 10 mg/kg; type: ADME, organism-based; settings: in vivo
[13] = Stability in mouse liver microsomes assessed as parent compound remaining measured at 60 mins; type: ADME; settings: read-out: Stability
[14] = Tmax in CD-1 mouse at 2 mg/kg, iv; type: ADME, organism-based; settings: in vivo
[15] = Tmax in CD-1 mouse at 10 mg/kg, po; type: ADME, organism-based; settings: in vivo
[16] = Aqueous solubility of the compound at pH 7.4; type: physicochemical; settings: buffer
[17] = Cmax in CD-1 mouse at 10 mg/kg, po; type: ADME, organism-based; parameters: dose 10 mg/kg, route oral; settings: in vivo
[18] = Stability in human liver microsomes assessed as parent compound remaining measured at 60 mins; type: ADME; settings: read-out: Stability
[19] = Drug metabolism in human liver microsomes assessed as CYP450-mediated 4-(pyridin-2-yl)-2-(pyrimidin-2-ylamino)thiazole-5-carboxylic acid formation measured at 60 mins; type: ADME; settings: 1 h
[20] = Drug metabolism in mouse liver microsomes assessed as CYP450-mediated 4-(pyridin-2-yl)-2-(pyrimidin-2-ylamino)thiazole-5-carboxylic acid formation measured at 60 mins; type: ADME; settings: 1 h
[21] = Half life in CD-1 mouse at 2 mg/kg, iv; type: ADME, organism-based; settings: in vivo
[22] = AUClast in CD-1 mouse at 10 mg/kg, po; type: ADME, organism-based; settings: in vivo
[23] = AUClast in CD-1 mouse at 2 mg/kg, iv; type: ADME, organism-based; settings: in vivo
[24] = Half life in CD-1 mouse at 10 mg/kg, po; type: ADME, organism-based; settings: in vivo
[25] = Volume of distribution at steady state in CD-1 mouse at 2 mg/kg, iv; type: ADME, organism-based; settings: in vivo, read-out: Vdss
[26] = Drug level in human liver microsomes treated with isopropyl 4-(pyrazin-2-yl)-2-(pyrimidin-2-ylamino)thiazole-5-carboxylate assessed as CYP450-mediated compound formation measured at 60 mins; type: ADME; settings: 1 h
[27] = Drug level in mouse liver microsomes treated with isopropyl 4-(pyrazin-2-yl)-2-(pyrimidin-2-ylamino)thiazole-5-carboxylate assessed as CYP450-mediated compound formation measured at 60 mins; type: ADME; settings: 1 h
[28] = Cytotoxicity against human hepatic cancer cells derived from HCC patient assessed as change in cell proliferation by measuring response rate at 1 uM after 48 hrs by Ki-67 immunostaining based assay; type: functional, Cancer cell lines
[29] = Tmax in CD-1 mouse at 2.5 mg/kg, po; type: ADME, organism-based; settings: in vivo
[30] = Oral bioavailability in CD-1 mouse at 2.5 mg/kg; type: ADME, organism-based; settings: in vivo
[31] = Half life in CD-1 mouse at 1 mg/kg, iv; type: ADME, organism-based; settings: in vivo
[32] = Tmax in CD-1 mouse at 1 mg/kg, iv; type: ADME, organism-based; settings: in vivo
[33] = Cmax in CD-1 mouse at 2.5 mg/kg, po; type: ADME, organism-based; parameters: dose 2.5 mg/kg, route oral; settings: in vivo
[34] = Drug metabolism in human liver microsomes assessed as CYP450-mediated 4-(pyrazin-2-yl)-2-(pyrimidin-2-ylamino)thiazole-5-carboxylic acid formation measured at 60 mins; type: ADME; settings: 1 h
[35] = Drug uptake in CD-1 mouse liver at 2.5 mg/kg, po; type: ADME, organism-based; settings: in vivo
[36] = AUClast in CD-1 mouse at 1 mg/kg, iv; type: ADME, organism-based; settings: in vivo
[37] = Drug metabolism in mouse liver microsomes assessed as CYP450-mediated 4-(pyrazin-2-yl)-2-(pyrimidin-2-ylamino)thiazole-5-carboxylic acid formation measured at 60 mins; type: ADME; settings: 1 h
[38] = Volume of distribution at steady state in CD-1 mouse at 1 mg/kg, iv; type: ADME, organism-based; settings: in vivo, read-out: Vdss
[39] = AUClast in CD-1 mouse at 2.5 mg/kg, po; type: ADME, organism-based; settings: in vivo

Structure (SMILES)	CC50 [1]	CC50 [2]	CC50 [3]	Selectivity Index (Huh-7 [4])	Selectivity Index (Huh-7 [5])	further results
CCOC(=O)c1sc(Nc2ncccn2)nc1-c1ncccc1C	49.1 µM	46100 nM	50 µM	1.07	–	–
CC(C)OC(=O)c1sc(Nc2ncccn2)nc1-c1ncccn1	50 µM	1620 nM	50 µM	30.96	30.96	–
CC(C)OC(=O)c1sc(N(COP(=O)(OC(C)(C)C)OC(C)(C)C)c2ncccn2)nc1-c1cnccn1	50 µM	980 nM	50 µM	51.28	51.28	solubility [6]: Soluble; solubility [7]: Soluble; solubility [8]: Soluble
CC(C)OC(=O)c1sc(Nc2ncccn2)nc1-c1ccccn1	50 µM	410 nM	49.8 µM	123.39	–	–
CCOC(=O)Cc1sc(Nc2ncccn2)nc1-c1ccccn1	50 µM	1390 nM	50 µM	35.94	35.94	–
O=C(O)c1sc(Nc2ncccn2)nc1-c1ccccn1	–	–	–	–	–	Drug metabolism [9]: Metabolite_Detected; Drug metabolism [10]: Metabolite_Detected
c1ccc(-c2csc(NCc3ncccn3)n2)nc1	49.6 µM	40500 nM	49.8 µM	1.22	–	–
CCOC(=O)CCc1sc(Nc2ncccn2)nc1-c1ccccn1	10.5 µM	2050 nM	10.1 µM	5.1	4.93	–
CCOC(=O)c1sc(Nc2ncccn2)nc1-c1ccccn1	–	180 nM	–	253.954	214.328	solubility [11]: 112.84 µM (≈ 36.9 µg/mL); bioavailability [12]: 10%; remaining at 1 h [13]: 43.3%; Tmax [14]: 0 h; Tmax [15]: 34.8 min; solubility [16]: 23.84 µM (≈ 7.8 µg/mL); Cmax [17]: 94.1 ng/mL; remaining at 1 h [18]: 63.1%; Drug metabolism [19]: Metabolite_Detected; Drug metabolism [20]: Metabolite_Detected; half-life [21]: 14.4 min; AUClast [22]: 19.5 ng·mL·h; AUClast [23]: 224 ng·mL·h; half-life [24]: 115 min; Vd [25]: 1.45 L/kg
CC(C)OC(=O)OCN(c1ncccn1)c1nc(-c2cnccn2)c(C(=O)OC(C)C)s1	50 µM	95 nM	50 µM	528.17	528.17	solubility [6]: Soluble; solubility [7]: Soluble; solubility [8]: Soluble
CCOC(=O)c1sc(Nc2ncccn2)nc1-c1cnccn1	47.1 µM	590 nM	50 µM	80.06	85.03	–
CC(C)OC(=O)c1sc(Nc2ncccn2)nc1-c1ccncn1	46.2 µM	1210 nM	50 µM	38.11	41.24	–
CCOC(=O)c1sc(Nc2ncccn2)nc1-c1cc(C(F)(F)F)ccn1	15 µM	170 nM	9.34 µM	90.32	56.24	–
CCOCc1sc(Nc2ncccn2)nc1-c1ccccn1	41.8 µM	3190 nM	39 µM	13.08	12.23	–
CCOC(=O)Cc1sc(NCc2ncccn2)nc1-c1ccccn1	50 µM	49400 nM	50 µM	1.01	1.01	–
CCOCc1sc(NCc2ncccn2)nc1-c1ccccn1	49.6 µM	44800 nM	50 µM	1.11	–	–
CCOC(=O)c1sc(NCc2ncccn2)nc1-c1ccccn1	–	50000 nM	–	1	1	–
O=C(O)c1sc(Nc2ncccn2)nc1-c1cnccn1	–	–	–	–	–	Drug metabolism [26]: Metabolite_Detected; Drug metabolism [27]: Metabolite_Detected
CC(C)OC(=O)c1sc(N(COP(=O)(OC(C)(C)C)OC(C)(C)C)c2ncccn2)nc1-c1ccccn1	42.2 µM	380 nM	50 µM	111.42	131.93	solubility [6]: Soluble; solubility [7]: Soluble; solubility [8]: Soluble
O=C(O)CCc1sc(Nc2ncccn2)nc1-c1ccccn1	26.4 µM	14100 nM	17.7 µM	1.87	1.25	–
COCCOCN(c1ncccn1)c1nc(-c2cnccn2)c(C(=O)OC(C)C)s1	50 µM	50000 nM	50 µM	–	1	solubility [6]: Soluble; solubility [7]: Soluble; solubility [8]: Soluble
CCOC(=O)c1sc(Nc2ncccn2)nc1-c1ccncn1	40.8 µM	1600 nM	40 µM	25.46	24.97	–
CC(C)OC(=O)c1sc(Nc2ncccn2)nc1-c1cnccn1	50 µM	110 nM	50 µM	471.7	471.7	solubility [11]: 6.35 µM (≈ 2.17 µg/mL); Activity [28]: 38%; Tmax [29]: 26.4 min; remaining at 1 h [13]: 36.2%; bioavailability [30]: 15.2%; solubility [16]: 5.2 µM (≈ 1.78 µg/mL); remaining at 1 h [18]: 70.9%; half-life [31]: 26.4 min; Tmax [32]: 0 h; Cmax [33]: 48.7 ng/mL; Drug metabolism [34]: Metabolite_Detected; Drug uptake [35]: 33 ng/g; AUClast [36]: 142 ng·mL·h; Drug metabolism [37]: Metabolite_Detected; Vd [38]: 3.49 L/kg; AUClast [39]: 21.6 ng·mL·h
c1ccc(-c2csc(Nc3ncccn3)n2)nc1	–	1100 nM	–	35.45	40.294	–

Source: ChEMBL document CHEMBL3867464, “Novel substituted aminothiazoles as potent and selective anti-hepatocellular carcinoma agents” (Bioorg Med Chem Lett, 2016)
